Here are results for 37 molecules from US9073876B2, “Flap modulators” (JANSSEN PHARMACEUTICA NV, priority 2013, dated 2015).

This assay has as its target human FLAP (Homo sapiens (Human), UniProt P20292). Description: FLAP binding assay (HTRF). The following applies: human FLAP-containing membranes, HTRF format; average of two assay plates, duplicates; read-out: FLAP Binding wild type HTRF Ki. The method, then:
The ability of the compounds of the present invention to treat a FLAP-mediated disease and/or disorder, or associated symptoms or complications thereof, was determined using the following procedures. Binding assay data represent the average value obtained from two different assay plates, with samples run in duplicate on each plate. Human whole blood assay data represent a single replicate on an assay plate using whole blood from at least one healthy donor.
Data are expressed as a HTRF ratio.

Chain of human FLAP (P20292 whole entry): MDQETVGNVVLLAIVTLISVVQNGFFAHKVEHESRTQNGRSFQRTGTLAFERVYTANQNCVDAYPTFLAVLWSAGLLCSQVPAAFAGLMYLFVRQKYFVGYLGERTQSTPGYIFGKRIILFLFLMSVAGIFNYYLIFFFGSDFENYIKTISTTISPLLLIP

As usually defined, the Ki is the dissociation constant of the complex between target and ligand, obtained from inhibition or displacement. As for “5-(4-Cyclobutyl-2-fluoro-3- methoxyphenyl)pyridin-2-amine hydrochloride salt [Example 178]”, the Ki is 354 nM.

Consider `Nc1cnc(-c2ccc(C3CCC3)c(OCC(O)CN3CCC(O)C3)c2F)cn1` (mixture of isomers) [Example 308, diastereomeric mixture 1-{3-[3-(5-Aminopyrazin-2-yl)-6-cyclobutyl-2-fluorophenoxy]-2-hydroxypropyl}pyrrolidin-3-ol], for which the inhibition constant Ki is > 10000 nM.

On to `Nc1cnc(-c2ccc(C3CCC3)c(OCC(O)Cn3ccccc3=O)c2F)cn1` (racemic) [Example 51, racemic 1-(3-(3-(5-Aminopyrazin-2-yl)-6-cyclobutyl-2-fluorophenoxy)-2-hydroxypropyl)pyridin-2(1H)-one], for which the Ki was determined as 324 nM.

Turning to `Nc1cnc(-c2ccc(C3CCC3)c(OCC(O)CO)c2F)cn1` (racemic) [Example 254, 3-(3-(5-Aminopyrazin-2-yl)-6-cyclobutyl-2-fluorophenoxy)propane-1,2-diol], the Ki was 992 nM.

With `Nc1cnc(-c2ccc(C3CCC3)c(OCC3CCCNC3)c2F)cn1` (racemic) [Example 299, racemic 5-[4-Cyclobutyl-2-fluoro-3-(piperidin-3-ylmethoxy)phenyl]pyrazin-2-amine], the inhibition constant (Ki) is > 10000 nM.

For `Nc1cnc(-c2ccc(C3CCC3)c(OCC3CCNC3)c2F)cn1` (racemic) [Example 300, racemic 5-[4-Cyclobutyl-2-fluoro-3-(pyrrolidin-3-ylmethoxy)phenyl]pyrazin-2-amine], the inhibition constant Ki is > 10000 nM.

Regarding `Nc1cnc(-c2ccc(C3CCC3)c(OCC3CCCN3)c2F)cn1` (racemic) [Example 302, racemic 5-[4-Cyclobutyl-2-fluoro-3-(pyrrolidin-2-ylmethoxy)phenyl]pyrazin-2-amine], the inhibition constant Ki is > 10000 nM.

For `Nc1cnc(-c2ccc(C3CCC3)c(OCC(O)CN3CCCCC3)c2F)cn1` (racemic) [Example 303, racemic 5 1-[3-(5-Aminopyrazin-2-yl)-6-cyclobutyl-2-fluorophenoxy]-3-piperidin-1-ylpropan-2-ol], the inhibition constant Ki is > 10000 nM.

Turning to `CNCC(O)COc1c(C2CCC2)ccc(-c2cnc(N)cn2)c1F` (racemic) [Example 304, racemic 1-[3-(5-Aminopyrazin-2-yl)-6-cyclobutyl-2-fluorophenoxy]-3-(methylamino)propan-2-ol], the inhibition constant Ki was > 10000 nM.

Regarding `CC(C)NCC(O)COc1c(C2CCC2)ccc(-c2cnc(N)cn2)c1F` (racemic) [Example 305, racemic 1-[3-(5-Aminopyrazin-2-yl)-6-cyclobutyl-2-fluorophenoxy]-3-[(1-methylethyl)amino]propan-2-ol], the Ki was > 10000 nM.

For `Nc1cnc(-c2ccc(C3CCC3)c(OCC(O)CN3CCCC3)c2F)cn1` (racemic) [Example 306, racemic 1-[3-(5-Aminopyrazin-2-yl)-6-cyclobutyl-2-fluorophenoxy]-3-pyrrolidin-1-ylpropan-2-ol], the inhibition constant (Ki) is > 10000 nM.

For the molecule `CN(C)CC(O)COc1c(C2CCC2)ccc(-c2cnc(N)cn2)c1F` (racemic) [Example 307, racemic 1-[3-(5-Aminopyrazin-2-yl)-6-cyclobutyl-2-fluorophenoxy]-3-(dimethylamino)propan-2-ol], the inhibition constant (Ki) is > 10000 nM.

For the molecule `Nc1cnc(-c2ccc(C3CCC3)c(OCC(O)CN3CCNCC3)c2F)cn1` (racemic) [Example 309, racemic 1-[3-(5-Aminopyrazin-2-yl)-6-cyclobutyl-2-fluorophenoxy]-3-piperazin-1-ylpropan-2-ol], the inhibition constant (Ki) is > 10000 nM.

With `Nc1cnc(-c2ccc(C3CCC3)c(OCC(O)Cn3cccnc3=O)c2F)cn1` (racemic) [Example 310, racemic 1-{3-[3-(5-Aminopyrazin-2-yl)-6-cyclobutyl-2-fluorophenoxy]-2-hydroxypropyl}pyrimidin-2(1H)-one], the inhibitory constant (Ki) was > 10000 nM.

As for `Nc1cnc(-c2ccc(C3CCC3)c(OCC(O)CN3CCNC3=O)c2F)cn1` (racemic) [Example 312, racemic 1-{3-[3-(5-Aminopyrazin-2-yl)-6-cyclobutyl-2-fluorophenoxy]-2-hydroxypropyl}imidazolidin-2-one], the inhibition constant Ki worked out at 974 nM.

`Nc1cnc(-c2ccc(C3CCC3)c(OCc3cccc(OC(F)(F)F)c3)c2F)cn1` [Example 9, 5-(4-Cyclobutyl-2-fluoro-3-{[3-(trifluoromethoxy)benzyl]oxy}phenyl)-pyrazin-2-amine]: the Ki came out at 808 nM.

In the case of `Nc1cnc(-c2ccc(C3CCC3)c(OCc3ccc(OC(F)(F)F)cc3)c2F)cn1` [Example 10, 5-(4-Cyclobutyl-2-fluoro-3-{[4-(trifluoromethoxy)benzyl]oxy}phenyl)-pyrazin-2-amine], the Ki was 866 nM.

With `Nc1cnc(-c2ccc(C3CCC3)c(OCc3ccc(F)cc3)c2F)cn1` [Example 28, 5-{4-Cyclobutyl-2-fluoro-3-[(4-fluorobenzyl)oxy]phenyl}pyrazin-2-amine], the inhibitory constant (Ki) stood at 304 nM.

In the case of `Nc1cnc(-c2ccc(C3CCC3)c(OCc3ccccc3F)c2F)cn1` [Example 30, 5-{4-Cyclobutyl-2-fluoro-3-[(2-fluorobenzyl)oxy]phenyl}pyrazin-2-amine], the inhibition constant Ki amounted to 354 nM.

For `Nc1cnc(-c2ccc(C3CCC3)c(OCc3cccc(F)c3F)c2F)cn1` [Example 32, 5-{4-Cyclobutyl-3-[(2,3-difluorobenzyl)oxy]-2-fluorophenyl}pyrazin-2-amine], the Ki is 354 nM.

`Nc1cnc(-c2ccc(C3CCC3)c(OCc3ccc(Cl)cc3Cl)c2F)cn1` [Example 40, 5-{4-Cyclobutyl-3-[(2,4-dichlorobenzyl)oxy]-2-fluorophenyl}pyrazin-2-amine]: the inhibitory constant (Ki) stood at 612 nM.

`Nc1cnc(-c2ccc(C3CCC3)c(OCc3cccc(C(F)(F)F)c3Cl)c2F)cn1` [Example 42, 5-(3-{[2-Chloro-3-(trifluoromethyl)benzyl]oxy}-4-cyclobutyl-2-fluorophenyl)pyrazin-2-amine]: the inhibitory constant (Ki) was 2000 nM.

Turning to `Nc1cnc(-c2ccc(C3CCC3)c(OCc3cc(Cl)ccc3C(F)(F)F)c2F)cn1` [Example 43, 5-(3-{[5-Chloro-2-(trifluoromethyl)benzyl]oxy}-4-cyclobutyl-2-fluorophenyl)pyrazin-2-amine], the inhibition constant (Ki) came out at 430 nM.

Consider `Nc1cnc(-c2ccc(C3CCC3)c(OCc3ccc(F)cc3C(F)(F)F)c2F)cn1` [Example 44, 5-(4-Cyclobutyl-2-fluoro-3-{[4-fluoro-2-(trifluoro-methyl)benzyl]oxy}phenyl)pyrazin-2-amine], for which the Ki was 1500 nM.

Turning to `Nc1cnc(-c2ccc(C3CCC3)c(OCC(=O)O)c2F)cn1` [Example 50, [3-(5-Aminopyrazin-2-yl)-6-cyclobutyl-2-fluorophenoxy]acetic acid], the Ki was found to be 1500 nM.

For `Nc1cnc(-c2ccc(C3CCC3)c(OCC3CCCCC3)c2F)cn1` [Example 71, 5-[4-Cyclobutyl-3-(cyclohexylmethoxy)-2-fluorophenyl]pyrazin-2-amine], the Ki turned out to be 620 nM.

As to `Cc1noc(COc2c(C3CCC3)ccc(-c3cnc(N)cn3)c2F)n1` [Example 75, 5-{4-Cyclobutyl-2-fluoro-3-[(3-methyl-1,2,4-oxadiazol-5-yl)methoxy]phenyl}pyrazin-2-amine], the inhibition constant Ki was determined as 370 nM.

With `Nc1cnc(-c2ccc(C3CCC3)c(OCc3ccccc3S(F)(F)(F)(F)F)c2F)cn1` [Example 81, 5-(4-Cyclobutyl-2-fluoro-3-{[2-(pentafluoro-lambda~6~- sulfanyl)benzyl]oxy}phenyl)pyrazin-2-amine], the inhibition constant (Ki) stood at 394 nM.

With `Nc1cnc(-c2ccc(C3CCC3)c(OCC3CCC3)c2F)cn1` [Example 82, 5-[4-Cyclobutyl-3-(cyclobutylmethoxy)-2-fluorophenyl]pyrazin-2-amine], the Ki is 304 nM.

Consider `Nc1cnc(-c2ccc(C3CCC3)c(Oc3cnc(C(F)(F)F)cn3)c2F)cn1` [Example 105, 5-(4-Cyclobutyl-2-fluoro-3-{[5-(trifluoromethyl)pyrazin-2-yl]oxy}phenyl)pyrazin-2-amine], for which the Ki stood at 250 nM.

Regarding `CS(=O)(=O)c1ccccc1Oc1c(C2CCC2)ccc(-c2cnc(N)cn2)c1F` [Example 117, 5-{4-Cyclobutyl-2-fluoro-3-[2-(methylsulfonyl)phenoxy]phenyl}pyrazin-2-amine], the Ki worked out at 2500 nM.

With `Nc1cnc(-c2ccc(C3CCC3)c(Oc3ccc(C(F)(F)F)c(C(F)(F)F)c3)c2F)cn1` [Example 120, 5-{3-[3,4-Bis(trifluoromethyl)phenoxy]-4-cyclobutyl-2-fluorophenyl}pyrazin-2-amine], the inhibition constant Ki stood at 304 nM.

`Nc1cnc(-c2ccc(C3CCC3)c(Oc3ncccc3C(F)(F)F)c2F)cn1` [Example 121, 5-(4-Cyclobutyl-2-fluoro-3-{[3-(trifluoromethyl)pyridin-2-yl]oxy}phenyl)pyrazin-2-amine]: the Ki came to 250 nM.

Turning to `Nc1cnc(-c2ccc(C3CCC3)c(Oc3cc(C(F)(F)F)ncn3)c2F)cn1` [Example 125, 5-(4-Cyclobutyl-2-fluoro-3-{[6-(trifluoromethyl)pyrimidin-4-yl]oxy}phenyl)pyrazin-2-amine], the inhibitory constant (Ki) amounted to 250 nM.

Regarding `CS(=O)(=O)c1ccc(Oc2c(C3CCC3)ccc(-c3cnc(N)cn3)c2F)c(C(F)(F)F)c1` [Example 127, 5-(4-cyclobutyl-2-fluoro-3-(4-(methylsulfonyl)-2-(trifluoro-methyl)phenoxy)phenyl)pyrazin-2-amine], the inhibition constant (Ki) worked out at 2200 nM.

For `Nc1cnc(-c2ccc(C3CCC3)c(Oc3ccc(C(F)(F)F)nc3)c2F)cn1` [Example 128, 5-(4-Cyclobutyl-2-fluoro-3-{[6-(trifluoromethyl)pyridin-3-yl]oxy}phenyl)pyrazin-2-amine], the inhibitory constant (Ki) is 297 nM.

Consider `Cn1nc(Oc2c(C3CCC3)ccc(-c3cnc(N)cn3)c2F)c(C#N)c1C(F)(F)F` [Example 148, 3-[3-(5-Aminopyrazin-2-yl)-6-cyclobutyl-2-fluorophenoxy]-1-methyl-5-(trifluoromethyl)-1H-pyrazole-4-carbonitrile], for which the Ki was found to be 101 nM.
